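48-hour exposure; five concentrations; linearly interpolated endpoints. GI50 = concentration required for 50% inhibition of growth. TGI: concentration producing complete growth inhibition.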
How the values were obtained:
Test in all cases: NCI tumour cell line growth inhibition, 48 h; in the data active = GI50 below about 0.43 µM; inactive = the rest
[1] = system: TK-10 renal
[2] = system: SF-295 CNS
[3] = system: DLD-1 colon
[4] = system: SW-620 colon
[5] = system: DMS 114 small cell lung
[6] = system: ACHN renal
[7] = system: NCI-H460 lung
[8] = system: UACC-62 melanoma
[9] = system: BT-549 breast
[10] = system: MCF7 breast

Cc1cccc(C)c1NC(=O)C(=O)C(C(=O)c1ccccc1-c1ccccc1)C1OC(=O)c2ccccc21 (stereo unspecified)
37.3 µM: TGI [3]
65.2 µM: TGI [4]
36.7 µM: TGI [8]
53.7 µM: TGI [1]
> 100 µM: TGI [2] | TGI [6]
32.4 µM: TGI [5]
78.2 µM: TGI [7]

CN[C@@H](C)[C@@H](NC)c1ccccc1
> 100 µM: TGI [1] | TGI [2] | TGI [3] | TGI [4] | TGI [5] | TGI [6] | TGI [7] | TGI [8]

CC(C)C(=O)Nc1nc2c(ncn2C2OC(CO)C(O)C2O)c(=O)[nH]1 (stereo unspecified)
> 100 µM: TGI [1] | TGI [2] | TGI [3] | TGI [4] | TGI [5] | TGI [6] | TGI [7] | TGI [8]

O=[N+]([O-])c1ccc(N2N=C(c3ccc(NCc4nc5ccccc5[nH]4)cc3)CC2c2ccco2)cc1 (stereo unspecified)
69.3 µM: TGI [8]
50.9 µM: TGI [5]
> 100 µM: TGI [1] | TGI [3] | TGI [4] | TGI [6] | TGI [7]
74.7 µM: TGI [2]

CCOP(=O)(OCC)OC1C=CC2CCC1C2 (stereo unspecified)
> 100 µM: TGI [1] | TGI [2] | TGI [3] | TGI [5] | TGI [6] | TGI [7] | TGI [8]

O=S(=O)(c1ccccc1)C1CN2OC1(S(=O)(=O)c1ccccc1)CC2c1ccc(Br)cc1 (stereo unspecified)
> 100 µM: TGI [1] | TGI [2] | TGI [3] | TGI [4] | TGI [5] | TGI [6] | TGI [7] | TGI [8]

CCCO/S(=N\S(=O)(=O)c1ccccc1)c1ccccc1[N+](=O)[O-] (stereo unspecified)
> 100 µM: TGI [2] | TGI [3] | TGI [4] | TGI [5] | TGI [6] | TGI [7] | TGI [8]

Cc1ccc(S(=O)(=O)c2ccc(N)cc2)cc1
> 100 µM: TGI [1] | TGI [2] | TGI [3] | TGI [4] | TGI [6] | TGI [7] | TGI [8]

CCN(Cc1ccccc1C)c1ccc(CO)c(Cl)c1
0.863 µM: TGI [1]
30.1 µM: TGI [9]
16.9 µM: TGI [2]
inactive: GI50 [9] 15.8 µM | GI50 [10] 2 µM | GI50 [2] 4.15 µM | GI50 [4] 3.74 µM | GI50 [6] 15.7 µM | GI50 [7] 0.821 µM
18.5 µM: TGI [4]
12.7 µM: TGI [7]
39.4 µM: TGI [6]
active: GI50 [1] 0.0944 µM | GI50 [8] 0.423 µM
14.7 µM: TGI [10]
6.27 µM: TGI [8]

Cn1cc(C2=C(c3cccc(Br)c3)C(=O)NC2=O)c2ccccc21
> 25 µM: TGI [9] | TGI [1] | TGI [10] | TGI [2] | TGI [4] | TGI [6] | TGI [7] | TGI [8]
inactive: GI50 [9] 15.1 µM | GI50 [1] > 18.6 µM | GI50 [10] 6.08 µM | GI50 [2] 12.9 µM | GI50 [4] 9.44 µM | GI50 [6] 14.5 µM | GI50 [7] 16.9 µM | GI50 [8] 11.3 µM

O=Cc1ccc2c(c1-c1c(C=O)ccc3c1OCO3)OCO2
> 100 µM: TGI [1] | TGI [2] | TGI [3] | TGI [4] | TGI [5] | TGI [6] | TGI [7] | TGI [8]

Source: PubChem BioAssay (NCI)
